Patent US12319652B2, “Salts and solid forms of (R)-1-(5-methoxy-1H-indol-1-yl)-N,N-dimethylpropan-2-amine” (priority 2021, dated 2025)
Where two headings read alike, the source gives them in different places.

Columns and labels:
[1] = assay type: physicochemical
Procedure: Equilibrium Humidity Evaluation (40° C./75% RH for 10 Days)
100 mg portions of compound 1 salts (for inputs see table below) were placed in the relevant open vials. The powders were finely divided and distributed evenly over the base of the vial, such that equal material coverage across the panel was observed. These samples were then maintained 40°C. under 75% RH. The samples were sub-sampled at intervals of 5 and 10 days and analysed by ^1H NMR, HPLC, XRPD, DSC, TGA and PLM, for evidence of phase change or chemical degradation (FIG. 269-297).

[2] = Dynamic vapor sorption (DVS); assay type: physicochemical
Procedure: There are two main methods to use, one is by time where the equilibration is given by a fixed time, i.e., 1 hour per step and is appropriate for an unknown phase. The second, is by mass per time unit (dm/dt) of 0.002%/min; that is when the difference in weight is less than 0.002%, the instrument moves onto the next step. For unknown hygroscopicity, the method by time is indicated because it gives an idea of water affinity without wasting much time. Ideally the analyses are repeated using the mass equilibration method to confirm. By experience for hygroscopic samples, the analysis can continue for days. For non-hygroscopic samples the difference between the two methods may not be significant.
Consequently, amorphous batch 1 was analyzed by the fixed time method and once compound 1 fumarate crystalline polymorphic Form A was generated the analyses was repeated as mass per unit time equilibrated @dm/dt ([…]) and is given below (refer to FIG. 12).
(§1) The moisture sorption properties of the feed API were analysed by DVS Intrinsic instrument (Surface Measurement System). Approximately 20 to 50 mg of API was weighed onto an aluminium pan and loaded into the instrument equilibrated at 25° C. The sample was equilibrated under a dry atmosphere (0% relative humidity) for 60 minutes, before increasing the humidity from 0% to 30% at 5%4 step increment and from 30% to 90% at 10% step increment. A desorption cycle was also applied from 90% to 30% (10% step decrement) and from 30% to 0% (5% step decrement). A rate of change in mass per time unit (dm/dt) of 0.002%/min was set as the equilibrium parameter. Kinetic and isotherm graphs were calculated.
Specimens were equilibrated at 0% RH for 60 min, prior to DVS analyses (stepped increment % RH up to 90% RH and stepped decrement % RH down to 0% RH.
as §1, with “5%” for “5%4”

COc1ccc2c(ccn2C[C@@H](C)N(C)C)c1.O=C(O)/C=C\C(=O)O [Maleate salt]
HPLC peak RRT 0.93 ([1]; salt before storage (t = 0)): 0.03
HPLC peak RRT 0.98 ([1]; salt before storage (t = 0)): 0.06
HPLC peak RRT 1.00 (reference peak) ([1]; salt before storage (t = 0)): 99.22
HPLC peak RRT 1.10 ([1]; salt before storage (t = 0)): 0.28
HPLC peak RRT 1.13 ([1]; salt before storage (t = 0)): 0.14
HPLC peak RRT 1.17 ([1]; salt before storage (t = 0)): 0.02
HPLC peak RRT 1.18 ([1]; salt before storage (t = 0)): 0.03
HPLC peak RRT 1.19 ([1]; salt before storage (t = 0)): 0.08
HPLC peak RRT 1.25 ([1]; salt before storage (t = 0)): 0.03
HPLC peak RRT 1.34 ([1]; salt before storage (t = 0)): 0.11
HPLC peak RRT 0.84 ([1]; t = 5 d at 75% RH at 40° C.): 0.31
HPLC peak RRT 0.93 ([1]; t = 5 d at 75% RH at 40° C.): 0.05
HPLC peak RRT 0.98 ([1]; t = 5 d at 75% RH at 40° C.): 0.03
HPLC peak RRT 1.00 (reference peak) ([1]; t = 5 d at 75% RH at 40° C.): 99.09
HPLC peak RRT 1.13 ([1]; t = 5 d at 75% RH at 40° C.): 0.21
HPLC peak RRT 1.19 ([1]; t = 5 d at 75% RH at 40° C.): 0.10
HPLC peak RRT 1.34 ([1]; t = 5 d at 75% RH at 40° C.): 0.22
HPLC peak RRT 0.84 ([1]; t = 10 d at 75% RH at 40° C.): 0.65
HPLC peak RRT 0.93 ([1]; t = 10 d at 75% RH at 40° C.): 0.06
HPLC peak RRT 0.98 ([1]; t = 10 d at 75% RH at 40° C.): 0.05
HPLC peak RRT 1.00 (reference peak) ([1]; t = 10 d at 75% RH at 40° C.): 98.30
HPLC peak RRT 1.13 ([1]; t = 10 d at 75% RH at 40° C.): 0.33
HPLC peak RRT 1.19 ([1]; t = 10 d at 75% RH at 40° C.): 0.09
HPLC peak RRT 1.22 ([1]; t = 10 d at 75% RH at 40° C.): 0.09
HPLC peak RRT 1.25 ([1]; t = 10 d at 75% RH at 40° C.): 0.02
HPLC peak RRT 1.26 ([1]; t = 10 d at 75% RH at 40° C.): 0.06
HPLC peak RRT 1.28 ([1]; t = 10 d at 75% RH at 40° C.): 0.05
HPLC peak RRT 1.32 ([1]; t = 10 d at 75% RH at 40° C.): 0.10
HPLC peak RRT 1.34 ([1]; t = 10 d at 75% RH at 40° C.): 0.19

COc1ccc2c(ccn2C[C@@H](C)N(C)C)c1.O=C(O)c1ccccc1 [Benzoate salt]
HPLC peak RRT 1.00 (reference peak) ([1]; salt before storage (t = 0)): 99.64
HPLC peak RRT 1.09 ([1]; salt before storage (t = 0)): 0.03
HPLC peak RRT 1.16 ([1]; salt before storage (t = 0)): 0.03
HPLC peak RRT 1.19 ([1]; salt before storage (t = 0)): 0.10
HPLC peak RRT 1.20 ([1]; salt before storage (t = 0)): 0.02
HPLC peak RRT 1.24 ([1]; salt before storage (t = 0)): 0.06
HPLC peak RRT 1.26 ([1]; salt before storage (t = 0)): 0.01
HPLC peak RRT 1.35 ([1]; salt before storage (t = 0)): 0.10
HPLC peak RRT 0.98 ([1]; t = 5 d at 75% RH at 40° C.): 0.04
HPLC peak RRT 1.00 (reference peak) ([1]; t = 5 d at 75% RH at 40° C.): 99.64
HPLC peak RRT 1.16 ([1]; t = 5 d at 75% RH at 40° C.): 0.03
HPLC peak RRT 1.19 ([1]; t = 5 d at 75% RH at 40° C.): 0.10
HPLC peak RRT 1.20 ([1]; t = 5 d at 75% RH at 40° C.): 0.02
HPLC peak RRT 1.26 ([1]; t = 5 d at 75% RH at 40° C.): 0.05
HPLC peak RRT 1.35 ([1]; t = 5 d at 75% RH at 40° C.): 0.11
HPLC peak RRT 0.98 ([1]; t = 10 d at 75% RH at 40° C.): 0.04
HPLC peak RRT 1.00 (reference peak) ([1]; t = 10 d at 75% RH at 40° C.): 99.52
HPLC peak RRT 1.08 ([1]; t = 10 d at 75% RH at 40° C.): 0.05
HPLC peak RRT 1.16 ([1]; t = 10 d at 75% RH at 40° C.): 0.04
HPLC peak RRT 1.19 ([1]; t = 10 d at 75% RH at 40° C.): 0.13
HPLC peak RRT 1.20 ([1]; t = 10 d at 75% RH at 40° C.): 0.02
HPLC peak RRT 1.26 ([1]; t = 10 d at 75% RH at 40° C.): 0.07
HPLC peak RRT 1.35 ([1]; t = 10 d at 75% RH at 40° C.): 0.12

COc1ccc2c(ccn2C[C@@H](C)N(C)C)c1.Cl [Compound 1 HCl (Form A)]
DVS 0 to 90 to 0% RH (dm/dt <0.002%) ([2]; 0.0% RH, sorption): DVS 0 to 90 to 0% RH (dm/dt <0.002%): 0.0 (0.00%), 5.0 (0.00%),
DVS 0 to 90 to 0% RH (dm/dt <0.002%) ([2]; 5.0% RH, desorption): 0.03%
DVS 0 to 90 to 0% RH (dm/dt <0.002%) ([2]; 5.0% RH, sorption): DVS 0 to 90 to 0% RH (dm/dt <0.002%): 0.0 (0.00%), 5.0 (0.00%),
DVS 0 to 90 to 0% RH (dm/dt <0.002%) ([2]; 10.0% RH, desorption): 0.04%
DVS 0 to 90 to 0% RH (dm/dt <0.002%) ([2]; 10.0% RH, sorption): 0.02%
DVS 0 to 90 to 0% RH (dm/dt <0.002%) ([2]; 15.0% RH, desorption): 0.05%
DVS 0 to 90 to 0% RH (dm/dt <0.002%) ([2]; 15.0% RH, sorption): 0.02%
DVS 0 to 90 to 0% RH (dm/dt <0.002%) ([2]; 20.0% RH, desorption): 0.06%
DVS 0 to 90 to 0% RH (dm/dt <0.002%) ([2]; 20.0% RH, sorption): 0.03%
DVS 0 to 90 to 0% RH (dm/dt <0.002%) ([2]; 25.0% RH, desorption): 0.07%
DVS 0 to 90 to 0% RH (dm/dt <0.002%) ([2]; 25.0% RH, sorption): 0.04%
DVS 0 to 90 to 0% RH (dm/dt <0.002%) ([2]; 30.0% RH, desorption): 0.09%
DVS 0 to 90 to 0% RH (dm/dt <0.002%) ([2]; 30.0% RH, sorption): 0.05%
DVS 0 to 90 to 0% RH (dm/dt <0.002%) ([2]; 40.0% RH, desorption): 0.10%
DVS 0 to 90 to 0% RH (dm/dt <0.002%) ([2]; 40.0% RH, sorption): 0.07%
DVS 0 to 90 to 0% RH (dm/dt <0.002%) ([2]; 50.0% RH, desorption): 0.14%
DVS 0 to 90 to 0% RH (dm/dt <0.002%) ([2]; 50.0% RH, sorption): 0.10%
DVS 0 to 90 to 0% RH (dm/dt <0.002%) ([2]; 60.0% RH, desorption): 0.17%
DVS 0 to 90 to 0% RH (dm/dt <0.002%) ([2]; 60.0% RH, sorption): 0.14%
DVS 0 to 90 to 0% RH (dm/dt <0.002%) ([2]; 70.0% RH, desorption): 0.22%
DVS 0 to 90 to 0% RH (dm/dt <0.002%) ([2]; 70.0% RH, sorption): 0.19%
DVS 0 to 90 to 0% RH (dm/dt <0.002%) ([2]; 80.0% RH, desorption): 0.29%
DVS 0 to 90 to 0% RH (dm/dt <0.002%) ([2]; 80.0% RH, sorption): 0.26%
DVS 0 to 90 to 0% RH (dm/dt <0.002%) ([2]; 90.0% RH, desorption): 0.46%
DVS 0 to 90 to 0% RH (dm/dt <0.002%) ([2]; 90.0% RH, sorption): 0.46%

COc1ccc2c(ccn2C[C@@H](C)N(C)C)c1.Cl [HCl salt]
HPLC peak RRT 0.93 ([1]; salt before storage (t = 0)): 0.01
HPLC peak RRT 0.98 ([1]; salt before storage (t = 0)): 0.02
HPLC peak RRT 0.99 ([1]; salt before storage (t = 0)): 0.01
HPLC peak RRT 1.00 (reference peak) ([1]; salt before storage (t = 0)): 99.60
HPLC peak RRT 1.20 ([1]; salt before storage (t = 0)): 0.01
HPLC peak RRT 1.22 ([1]; salt before storage (t = 0)): 0.11
HPLC peak RRT 1.26 ([1]; salt before storage (t = 0)): 0.16
HPLC peak RRT 1.30 ([1]; salt before storage (t = 0)): 0.03
HPLC peak RRT 1.32 ([1]; salt before storage (t = 0)): 0.01
HPLC peak RRT 1.35 ([1]; salt before storage (t = 0)): 0.04
HPLC peak RRT 0.93 ([1]; t = 5 d at 75% RH at 40° C.): 0.05
HPLC peak RRT 0.98 ([1]; t = 5 d at 75% RH at 40° C.): 0.02
HPLC peak RRT 1.00 (reference peak) ([1]; t = 5 d at 75% RH at 40° C.): 99.42
HPLC peak RRT 1.20 ([1]; t = 5 d at 75% RH at 40° C.): 0.02
HPLC peak RRT 1.22 ([1]; t = 5 d at 75% RH at 40° C.): 0.42
HPLC peak RRT 1.26 ([1]; t = 5 d at 75% RH at 40° C.): 0.02
HPLC peak RRT 1.28 ([1]; t = 5 d at 75% RH at 40° C.): 0.02
HPLC peak RRT 1.35 ([1]; t = 5 d at 75% RH at 40° C.): 0.04
HPLC peak RRT 0.93 ([1]; t = 10 d at 75% RH at 40° C.): 0.05
HPLC peak RRT 0.98 ([1]; t = 10 d at 75% RH at 40° C.): 0.01
HPLC peak RRT 1.00 (reference peak) ([1]; t = 10 d at 75% RH at 40° C.): 99.60
HPLC peak RRT 1.22 ([1]; t = 10 d at 75% RH at 40° C.): 0.31
HPLC peak RRT 1.35 ([1]; t = 10 d at 75% RH at 40° C.): 0.02
